Measurements published in patent publication US6395729B1, “Use of pyridazino[4,5-b]indole-1-acetamide derivatives for preparing medicines for treating diseases related to the dysfunction of peripheral benzodiazepin receptors” (Sanofi-Synthelabo, priority 1999, dated 2002).

How the values were obtained:
[1] = system: motoneurons of the facial nucleus; assay: Survival of the motoneurons after cutting of the facial nerve in 4-day-old rats; type: in vivo, rat; conditions: 7 d treatment, i.p. route
Description: Test of Survival of the Motoneurons After Cutting of the Facial Nerve in 4-day-old Rats
After lesioning of the facial nerve in immature rats, the motoneurons of the facial nucleus undergo neuronal death by apoptosis. The evaluation of neuronal survival is carried out using histological and neuronal counting methods.
4-Day-old immature rats are anaesthetized with pentobarbital (3 mg/kg by the i.p. route). The right facial nerve is exposed and cut, where it leaves the stylomastoid foramen. After regaining consciousness, the young rats are returned to their mothers and treated, for 7 d, by one or two daily administrations, by the oral or intraperitoneal route, at doses ranging from 1 to 10 mg/kg. 7 d after the lesioning, the animals are decapitated and the brains frozen in isopentane at −40° C. The facial nucleus is cut using a cryostat, into 10 μm sections, in its entirety. The motoneurons are stained with cresyl violet and counted with the aid of the Histo™ software (Biocom™).

[2] = system: hearts isolated from rabbits; assay: Cardioprotective effects on isolated rabbit hearts subjected to regional ischaemia and reinfusion; set-up: left ventricular pressure, percentage of preischaemic recovery / contracture during reinfusion / maximum and minimum dP/dt values and double frequency-pressure product: dose or concentration left out as unconfirmed
Description: Study of the Cardioprotective Effects
The cardioprotective effects were studied on hearts isolated from rabbits subjected to a regional ischaemia and to a reinfusion. The size of infarction as well as the recovery of the contractile function upon reinfusion were measured.
New Zealand rabbits (2.3 to 2.5 kg, ESD France) are anaesthetized with a ketamine-xylasine mixture and heparinized. The heart is removed and rapidly infused by the retrograde aortic route at a pressure of 75 mmHg with a Krebs Henselheit-type solution. A balloon is introduced into the left ventricle and a telediastolic pressure of 5 mmHg is applied. After a stabilizing period of 20 min, the compound to be studied (1 mM) or the vehicle is added to the infusion solution 15 min before the ischaemia and during the entire duration of the experiment. The regional ischaemia is created by complete ligation of the left coronary artery for 30 min, the heart then being reinfused for 2 h.
The ventricular pressure, heart rate and coronary output parameters are monitored during the whole experiment.
After the reinfusion, the coronary artery is again occluded and China ink is infused in order to delimit the area at risk. Transverse sections are then prepared and incubated in a 1% triphenyltetrazolium solution so as to measure the size of the infarction. The quantification of the necrosed area, expressed as % of the area at risk, is obtained by means of image-analysing software.

[3] = system: kidneys (renal ischaemia-reinfusion); assay: Renoprotective effects, renal artery occlusion-reinfusion in rats; type: in vivo, rat; conditions: 3 mg/kg i.p. 60 min before the occlusion
Description: Study of the Renoprotective Effects
The experiment is carried out on Sprague-Dawley male rats (Charles River France) of 270 to 330 g. The animals are anaesthetized with pentobarbital (60 mg/kg i.p.), intubated and artificially ventilated, their temperature is maintained between 37 and 38° C.
A 3 cm laparotomy is performed on the animal in dorsal decubitus, the right and left renal arteries are exposed and occluded for 30 min, and then the kidneys are reinfused under visual monitoring and the incision is closed. The serum creatinine and urea nitrogen levels are determined from blood samples collected in the orbital sinus, at D0 (before anaesthesia), and then at D1, D2, D3, D4, D8 (after 1 occlusion-reinfusion).
The compound to be studied, or its vehicle (Tween 80 at 2%) is administered at the dose of 3 mg/kg by the i.p. route 60 min before the occlusion.

CN(C)C(=O)Cc1nn(-c2ccccc2)c(=O)c2c1c1ccc(Cl)cc1n2C [Compound No. 1, 7-Chloro-N,N,5-trimethyl-4-oxo-3-phenyl-3,5-dihydro-4H-pyridazino[4,5-b]indole-1-acetamide]
increase in neuronal survival [1]: 31% | contracture during reinfusion [2]: reduces the contracture | left ventricular pressure, percentage of preischaemic recovery ([2]; after 2 h of reinfusion): 65% | size of the infarction (necrosed area, expressed as % of the area at risk) ([2]; compound 1 mM in infusion solution, 30 min ischaemia, 2 h reinfusion): 22±3.3 % of the area at risk | reduction in the size of the infarction ([2]; compound 1 mM in infusion solution, 30 min ischaemia, 2 h reinfusion, vs controls, p<0.01): 47% | maximum and minimum dP/dt values and double frequency-pressure product ([2]; during reinfusion): significantly restores | reduction of creatininaemia compared with the vehicle ([3]; at D3): 56% | reduction of uraemia compared with the vehicle ([3]; at D3): 49% | mortality in the animals ([3]; dead/total animals): 1/12
